Where only a bound is given, the exact number is not on record here.

This assay concerns the target T1, βCat-BCL9 (beta-Catenin/BCL9-BCL9L interaction) (Homo sapiens, UniProt P35222).
T1 sequence (P35222 1-781): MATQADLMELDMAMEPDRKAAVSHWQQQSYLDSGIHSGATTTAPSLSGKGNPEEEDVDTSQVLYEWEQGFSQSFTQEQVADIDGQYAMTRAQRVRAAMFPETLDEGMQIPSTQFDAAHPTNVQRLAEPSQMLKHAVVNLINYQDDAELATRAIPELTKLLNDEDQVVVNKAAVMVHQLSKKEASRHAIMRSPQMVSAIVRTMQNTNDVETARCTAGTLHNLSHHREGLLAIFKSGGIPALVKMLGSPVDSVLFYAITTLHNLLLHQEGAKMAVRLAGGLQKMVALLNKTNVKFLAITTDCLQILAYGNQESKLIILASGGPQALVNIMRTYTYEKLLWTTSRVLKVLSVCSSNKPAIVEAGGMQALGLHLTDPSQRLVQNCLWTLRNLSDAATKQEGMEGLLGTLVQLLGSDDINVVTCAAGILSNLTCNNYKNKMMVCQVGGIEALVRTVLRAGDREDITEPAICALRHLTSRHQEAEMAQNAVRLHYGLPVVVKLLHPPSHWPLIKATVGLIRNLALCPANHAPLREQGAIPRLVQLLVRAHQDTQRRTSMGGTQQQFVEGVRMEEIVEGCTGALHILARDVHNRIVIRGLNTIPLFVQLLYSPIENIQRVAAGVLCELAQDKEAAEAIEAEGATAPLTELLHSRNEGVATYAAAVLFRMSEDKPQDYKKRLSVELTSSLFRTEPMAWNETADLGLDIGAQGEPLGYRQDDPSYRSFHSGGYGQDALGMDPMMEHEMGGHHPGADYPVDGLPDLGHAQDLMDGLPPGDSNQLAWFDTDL
Briefly: ELISA based protein-protein interaction assay, βCat-BCL9. The class given is binding. The note with it: Example 1. An excerpt: cDNAs including the binding domains of Lgs and beta-Catenin were fused down-stream of glutathione-S-transferase (GST) cDNA in pGEX-4T inducible bacterial expression vector (Pharmacia). Similar recombinant DNA constructs were generated in the pET-32a(+) vector (Novagen) for expression of fusion protein containing the Thioredoxine-6His tag at their N-terminus. Fusion proteins were produced in BL21 bacteria (e.g. Stratagene) following manufacturer's recommendation.
To isolate the produced fusions protein, bacteria were ground in aluminum oxide (Sigma, A2039) and the resulting powder extracted in lysis buffer (140 mM NaCl, 10 mM Na2HPO4, 1.8 mM KH2PO4, 2.7 mM KCl, 1 mM EDTA, 1% Triton-X-100, 1 mM DTT and protease inhibitors) under rotation for 30 minutes. Supernatants were cleared by centrifugation then filtered on a 0.45 μm membrane before protein purification. For GST tagged protein, lysate were processed on glutathione agarose beads following manufacturer's recommendation (Amersham Pharmacia) and purified proteins eluted in 50 mM Tris-Cl, 10 mM reduced glutathione pH8.0. For thioredoxine-6His fusions, tagged proteins were purified from the lysate on a nickel chelating column (e.g. Hitrap chelating, G.E. Healthcare) using an HPLC system (e.g. Akta Prime, G.E. Healthcare) and eluted under increasing concentration of imidazole. The purified proteins solution was dialyzed against PBS before use. The quality of the preparations was checked by SDS-gel electrophoresis by standard methods well known by persons skilled in the art.
Compound preparation: Compounds can be prepared as 25 mM stock in DMSO and diluted in DMSO to reach final test concentrations of up to 100 μM. Final DMSO concentration in the assay is 5%.
100 μl of GST fusion protein (e.g. GST-βCatenin) diluted to the appropriate concentration in phosphate buffer saline are added per well to a 96 well plate with high protein binding capacity (e.g. Nunc Maxisorp) and placed at 4° C. overnight. The following day the liquid in the wells is discarded and 150 μl 3% bovine serum albumin (BSA) in PBS are added to each well and incubated at room temperature for 2 hours under moderate shaking. This solution is then discarded and each well washed twice with 200 μl PBS. After carefully discarding the second wash, a mixture of 5 μl compound dilution and 95 μl 6His fusion protein (e.g. 6His-Bcl9) diluted to the appropriate concentration in PBS is added to each well. The plate is then incubated for 1 hour at room temperature under moderate shaking. This protein solution is then discarded and the wells washed 3 times with 200 μl 0.1% Tween-20 solution in PBS. After carefully discarding the final wash, 100 μl of anti 6His antibody conjugated to the horse-radish peroxidase (e.g. Roche antibody 11965085001) at the appropriate dilution in 1% BSA in PBS is added to the wells and the plate incubated for 1 hour at room temperature under moderate shaking. This solution is then discarded and the wells washed 3 times with 200 μl 0.1% Tween-20 solution in PBS. After carefully discarding the final wash, 100 μl of HRP substrate […] (TMB) in solution (e.g. Sigma T0440) is added to the wells and the plate incubated up to 30 minutes in the dark at room temperature. The reaction is stopped by addition of 100 μl of 2N HCl to each well and the optical density is measured at 450 nm and 630 nm.
(An ELISA detects its analyte on a solid surface through an enzyme-linked reagent.)
One may read the IC50 as the midpoint of a concentration-inhibition curve. Take `COc1cccc(CCNC(=O)c2ccc(C(=O)NCCc3cccc(OC)c3OC)nc2)c1OC` [TGC0011456]: the IC50 was > 100 µM. Consider `CCCCc1ccc(NC(=O)c2ccc(C(=O)Nc3ccc(CCCC)cc3)nc2)cc1` [TGC0011433], for which the IC50 is > 50 µM.

Turning to `O=C(Nc1ccc(-c2cnc(-c3ccc(NC(=O)C(F)(F)F)cc3)nc2)cc1)C(F)(F)F` [TGC0011526], the IC50 is > 100 µM.

With `N#Cc1cccc(NC(=O)c2ccc(C(=O)Nc3cccc(C#N)c3)cc2)c1` [TGC0012301], the IC50 is > 50 µM. Turning to `COc1ccc(CNC(=O)c2ccc(C(=O)NCc3ccc(OC)cc3)nc2)cc1` [TGC0011427], the IC50 is > 25 µM.

`COc1ccc(CCNC(=O)c2ccc(C(=O)NCCc3ccc(OC)c(Cl)c3)nc2)cc1Cl` [TGC0011593]: the IC50 is > 100 µM. The result for `COc1cc(-c2ccc(NC(=O)c3cc(-c4ccc(C)o4)nc4ccccc34)c(OC)c2)ccc1NC(=O)c1cc(-c2ccc(C)o2)nc2ccccc12` [TGC0000161] reads > 50 µM; that for `O=C(COc1ccc(Br)cc1)Nc1ccc(-c2cnc(-c3ccc(NC(=O)COc4ccc(Br)cc4)cc3)nc2)cc1` [TGC0011565], > 100 µM. As for `COc1cc(NC(=O)c2ccc(C(=O)Nc3ccc(OC)c(OC)c3)nc2)cc(OC)c1` [TGC0012408], the IC50 came out at 7 µM. That is a single-digit micromolar value.

For the compound `CC(CCc1ccccc1)NC(=O)c1ccc(C(=O)NC(C)CCc2ccccc2)nc1` (stereo not shown) [TGC0011436], the IC50 was > 10 µM. On to `CC(C)NC(=O)c1ccc(C(=O)NC(C)C)nc1` [TGC0011283], for which the IC50 is > 100 µM. The result for `O=C(NCc1ccccc1)c1ccc(C(=O)NCc2ccccc2)nc1` [TGC0011284] reads > 100 µM; that for `CC(C)(C)C(=O)Nc1ccc(-c2cnc(-c3ccc(NC(=O)C(C)(C)C)cc3)nc2)cc1` [TGC0011525], > 10 µM.

In the case of `CCN(CC)c1ccc(NC(=O)c2ccc(C(=O)Nc3ccc(N(CC)CC)cc3)nc2)cc1` [TGC0011281], the IC50 is > 100 µM. Turning to `O=C(NCCc1cccc(C(F)(F)F)c1)c1ccc(C(=O)NCCc2cccc(C(F)(F)F)c2)nc1` [TGC0011452], the IC50 was > 10 µM.

As to `O=C(c1ccc(C(=O)N2CCC(Cc3ccccc3)CC2)nc1)N1CCC(Cc2ccccc2)CC1` [TGC0011429], the IC50 is > 25 µM. The result for `COc1ccc(CCNC(=O)c2cnc(C(=O)NCCc3ccc(OC)c(OC)c3)cn2)cc1OC` [TGC0011592] reads > 10 µM; that for `O=C(O)c1ccc(NC(=O)c2ccc(C(=O)Nc3ccc(C(=O)O)cc3)cc2)cc1` [TGC0012290], > 50 µM. `O=C(NCC1CCCO1)c1ccc(C(=O)NCC2CCCO2)nc1` (stereo not shown) [TGC0011424]: the half-maximal inhibitory concentration (IC50) is > 50 µM. On to `CC(=O)Nc1ccc(-c2cnc(-c3ccc(NC(C)=O)cc3)nc2)cc1` [TGC0011524], for which the IC50 is > 100 µM. The result for `COc1ccc(Cl)cc1NC(=O)c1ccc(C(=O)Nc2cc(Cl)ccc2OC)nc1` [TGC0011282] reads > 100 µM.

`COc1ccc(CCNC(=O)c2ccc(-c3ccc(C(=O)NCCc4ccc(OC)c(OC)c4)cn3)nc2)cc1OC` [TGC0012281]: half-maximal inhibition (IC50) required 38 µM.

`O=C(Nc1ccc2c(c1)OCO2)c1ccc(C(=O)Nc2ccc3c(c2)OCO3)nc1` [TGC0011431]: the IC50 was > 50 µM.

Consider `O=C(c1ccc(C(=O)N2CCCc3ccccc32)nc1)N1CCCc2ccccc21` [TGC0011425], for which the IC50 was > 25 µM.

With `COc1cc(C(=O)Nc2ccncc2)c(OC)cc1C(=O)Nc1ccncc1` [TGC0012291], the IC50 was > 50 µM. Next, `CC(C)(C)C1CCc2c(sc(NC(=O)c3ccc(C(=O)Nc4sc5c(c4C#N)CCC(C(C)(C)C)C5)nc3)c2C#N)C1` (stereo not shown) [TGC0011343]: > 100 µM; `O=C(Nc1cccnc1O)c1ccc(C(=O)Nc2cccnc2O)nc1` [TGC0012261]: > 100 µM; `O=C(Nc1ccc(F)c(F)c1)c1ccc(C(=O)Nc2ccc(F)c(F)c2)nc1` [TGC0012289]: > 50 µM. Next, `O=C(Nc1ccc(F)c(Cl)c1)c1ccc(C(=O)Nc2ccc(F)c(Cl)c2)nc1` [TGC0011287]: > 100 µM; `CCC(C)NC(=O)c1ccc(C(=O)NC(C)CC)nc1` (stereo not shown) [TGC0011437]: > 50 µM; `O=C(O)c1cccc(NC(=O)c2ccc(C(=O)Nc3cccc(C(=O)O)c3)cc2)c1` [TGC0012297]: > 100 µM. Consider `O=C(NCCc1cccc(Cl)c1)c1ccc(C(=O)NCCc2cccc(Cl)c2)nc1` [TGC0011340], for which the IC50 was > 20 µM.

Take `COc1ccccc1CCNC(=O)c1ccc(C(=O)NCCc2ccccc2OC)nc1` [TGC0011445]: the IC50 is > 10 µM.

With `O=C(c1ccc(C(=O)N2CCOCC2)nc1)N1CCOCC1` [TGC0011426], the IC50 was > 50 µM. As to `COc1ccc(OC)c(CCNC(=O)c2ccc(C(=O)NCCc3cc(OC)ccc3OC)nc2)c1` [TGC0011457], the IC50 was > 100 µM.

The compound `COc1ccc(NC(=O)c2ccc(C(=O)Nc3ccc(NC(C)=O)cc3)cn2)cc1` [TGC0012409] gave an IC50 of 5 µM. Take `N#Cc1ccccc1NC(=O)c1ccc(C(=O)Nc2ccccc2C#N)cc1` [TGC0012300]: the IC50 was > 10 µM. On to `O=C(NCCC1=CCCCC1)c1ccc(C(=O)NCCC2=CCCCC2)nc1` [TGC0011435], for which the IC50 was > 50 µM. The result for `O=C(Nc1cc(C(F)(F)F)ccc1Cl)c1ccc(C(=O)Nc2cc(C(F)(F)F)ccc2Cl)nc1` [TGC0011278] reads > 100 µM; that for `Cc1cc(NC(=O)c2ccc(C(=O)Nc3cc(C)on3)nc2)no1` [TG00011289], > 50 µM.

Regarding `O=C(NCCc1ccc2c(c1)OCO2)c1ccc(C(=O)NCCc2ccc3c(c2)OCO3)nc1` [TGC0011448], the IC50 was > 10 µM. For the compound `Cc1cc(I)ccc1NC(=O)c1ccc(C(=O)Nc2ccc(I)cc2C)nc1` [TGC0011341], the IC50 is > 10 µM. Next, `O=C(Nc1ccc(-c2cnc(-c3ccc(NC(=O)c4ccc(Br)cc4)cc3)nc2)cc1)c1ccc(Br)cc1` [TGC0011533]: > 100 µM; `CC(=O)c1cccc(NC(=O)c2ccc(C(=O)Nc3cccc(C(C)=O)c3)nc2)c1` [TGC0011338]: > 10 µM; `O=C(NCc1ccc(Cl)cc1)c1ccc(C(=O)NCc2ccc(Cl)cc2)nc1` [TGC0011339]: > 10 µM. The result for `CC(C)(C)C(=O)Nc1ccc(C(=O)Nc2ccc(-c3cnc(-c4ccc(NC(=O)c5ccc(NC(=O)C(C)(C)C)cc5)cc4)nc3)cc2)cc1` [TGC0011534] reads > 100 µM; that for `O=C(Nc1ccc(-c2cnc(-c3ccc(NC(=O)c4ccccc4Cl)cc3)nc2)cc1)c1ccccc1Cl` [TGC0011530], > 10 µM. For `O=C(NCCc1ccccc1OC(F)(F)F)c1ccc(C(=O)NCCc2ccccc2OC(F)(F)F)nc1` [TGC0011454], the IC50 was > 100 µM. Turning to `CC(=O)Nc1ccc(NC(=O)c2ccc(C(=O)Nc3ccc(NC(C)=O)cc3)cc2)cc1` [TGC0012292], the IC50 was > 50 µM.

The record behind these values is US20100204219A1, “AROMATIC 1,4-DI-CARBOXYLAMIDES AND THEIR USE” (priority 2006, published 2010).
